Patent US12281119B2, “Imidazo[2,1-f][1,2,4]triazin-4-amine derivatives as TLR7 agonist” (BEIGENE, LTD., priority 2019, dated 2025)
pEC50: −log10 of the molar value.

How the values were obtained:
Type in all cases: cell-based
[1] = target: T1, human TLR 8 protein (Homo sapiens, UniProt Q9NR97); test: TLR8 stimulation determined using HEK-Blue Detection; details: HEK-Blue hTLR8 cells, 16 hr, relative to Resiquimod or Motolimod maximum
T1 construct: expressed in transfected cells; host or cells: HEK293 (HEK-Blue hTLR8)
T1 sequence (Q9NR97 27-1041): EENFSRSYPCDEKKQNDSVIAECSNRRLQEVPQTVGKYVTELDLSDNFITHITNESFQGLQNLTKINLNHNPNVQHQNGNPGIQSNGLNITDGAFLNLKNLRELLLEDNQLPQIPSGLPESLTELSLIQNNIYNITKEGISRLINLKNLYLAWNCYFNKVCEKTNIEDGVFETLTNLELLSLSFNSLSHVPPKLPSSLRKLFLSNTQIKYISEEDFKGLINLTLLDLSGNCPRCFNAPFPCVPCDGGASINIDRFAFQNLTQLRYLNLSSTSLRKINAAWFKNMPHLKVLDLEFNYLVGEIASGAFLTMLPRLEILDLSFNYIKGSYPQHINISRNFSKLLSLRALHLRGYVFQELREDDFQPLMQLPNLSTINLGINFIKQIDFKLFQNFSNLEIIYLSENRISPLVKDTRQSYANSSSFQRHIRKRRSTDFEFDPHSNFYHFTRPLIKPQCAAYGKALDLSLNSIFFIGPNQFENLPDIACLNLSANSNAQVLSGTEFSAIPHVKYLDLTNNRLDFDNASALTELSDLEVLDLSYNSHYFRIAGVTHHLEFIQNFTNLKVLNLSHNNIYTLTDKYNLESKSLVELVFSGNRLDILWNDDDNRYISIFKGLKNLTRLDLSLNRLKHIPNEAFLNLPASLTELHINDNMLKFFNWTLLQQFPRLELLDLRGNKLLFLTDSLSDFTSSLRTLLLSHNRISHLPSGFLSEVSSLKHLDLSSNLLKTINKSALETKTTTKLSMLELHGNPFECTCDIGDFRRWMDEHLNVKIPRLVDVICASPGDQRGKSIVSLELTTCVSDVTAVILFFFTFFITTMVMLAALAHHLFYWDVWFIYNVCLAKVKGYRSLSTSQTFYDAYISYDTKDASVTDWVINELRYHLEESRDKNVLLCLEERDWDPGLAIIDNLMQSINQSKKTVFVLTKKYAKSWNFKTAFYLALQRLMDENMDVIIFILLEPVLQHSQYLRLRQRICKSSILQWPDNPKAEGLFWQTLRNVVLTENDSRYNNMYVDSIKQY
Description: TLR8 Stimulation Determined Using HEK-Blue Detection
This assay was designed for studying the stimulation of human TLR 8 protein in HEK-Blue hTLR8 tool cell line by monitoring the activation of NF-1B. HEK-Blue hTLR8 cells were obtained by co-transfection of the hTLR8 gene and an optimized secreted embryonic alkaline phosphatase (SEAP) reporter gene into HEK293 cells. The SEAP reporter gene was placed under the control of the IFN-β minimal promoter fused to five NF-κB and AP-1-binding sites. Stimulation with a TLR 8 ligand activates NF-κB and AP-1 which induce the expression of SEAP. Levels of SEAP can be easily determined with HEK-Blue Detection, a cell culture medium that allows for real-time detection of SEAP. HEK-Blue Detection contains all the nutrients necessary for cell growth and a specific SEAP color substrate. The hydrolysis of the substrate by SEAP produces a purple/blue color that can be measured with a spectrophotometer.
When growing to 50-80% confluency, HEK-Blue hTLR7/8 cells were plated into 96-well plate (costar 3599) at a density of 40000 cells/well. Then compounds were added with serial dilutions over 10 points with a 1 nM-10 uM final concentration range in 0.1% DMSO/HEK-Blue Detection. The plates were then incubated for 16 hr at 37° C. in 5% CO2. The optical density at 620-655 nm was read on BMG PHERAstar FSX instrument. The EC50 for each compound was determined by calculating the percentages of the maximum activation identified with Resiquimod or Motolimod.

[2] = target: T2, human TLR7 (Homo sapiens, UniProt Q9NYK1); test: TLR7 stimulation determined using HEK-Blue Detection; set-up: expressed in transfected cells; host or cells: HEK293 (HEK-Blue hTLR7); details: HEK-Blue hTLR7 cells, HEK-Blue Detection (A77-A124), 16 hr, relative to Resiquimod maximum
T2 sequence (Q9NYK1 27-1049): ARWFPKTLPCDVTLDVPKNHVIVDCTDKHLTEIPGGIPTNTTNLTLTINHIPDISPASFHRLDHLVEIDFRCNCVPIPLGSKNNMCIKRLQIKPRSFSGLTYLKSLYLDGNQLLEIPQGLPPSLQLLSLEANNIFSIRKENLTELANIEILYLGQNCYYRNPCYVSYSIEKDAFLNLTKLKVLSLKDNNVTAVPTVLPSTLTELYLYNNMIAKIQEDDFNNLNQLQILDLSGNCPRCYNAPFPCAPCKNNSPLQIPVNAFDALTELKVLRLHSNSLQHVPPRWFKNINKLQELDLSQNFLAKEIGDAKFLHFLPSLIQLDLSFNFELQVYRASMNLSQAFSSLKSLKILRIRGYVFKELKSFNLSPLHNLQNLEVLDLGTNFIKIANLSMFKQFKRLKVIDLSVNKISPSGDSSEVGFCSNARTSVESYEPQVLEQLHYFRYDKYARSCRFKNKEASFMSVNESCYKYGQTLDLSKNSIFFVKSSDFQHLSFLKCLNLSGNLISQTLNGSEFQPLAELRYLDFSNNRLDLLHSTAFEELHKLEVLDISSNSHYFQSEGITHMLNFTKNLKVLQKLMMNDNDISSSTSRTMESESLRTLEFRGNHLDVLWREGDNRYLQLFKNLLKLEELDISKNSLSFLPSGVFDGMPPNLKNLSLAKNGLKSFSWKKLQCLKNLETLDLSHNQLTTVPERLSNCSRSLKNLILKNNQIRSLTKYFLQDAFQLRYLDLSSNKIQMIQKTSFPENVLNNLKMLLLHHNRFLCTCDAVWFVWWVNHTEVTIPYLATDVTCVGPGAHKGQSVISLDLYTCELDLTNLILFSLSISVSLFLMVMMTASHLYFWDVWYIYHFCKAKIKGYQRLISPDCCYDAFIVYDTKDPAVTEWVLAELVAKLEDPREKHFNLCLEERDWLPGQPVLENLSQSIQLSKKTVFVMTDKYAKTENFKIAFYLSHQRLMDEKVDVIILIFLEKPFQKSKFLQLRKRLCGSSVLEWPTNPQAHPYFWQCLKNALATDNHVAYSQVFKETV
Description: TLR7 Stimulation Determined Using HEK-Blue Detection
This assay was designed for studying the stimulation of human TLR7 protein in HELK-Blue hTLR7 tool cell line by monitoring the activation of NF-κB. HEK-Blue hTLR7 cells were obtained by co-transfection of the hTLR7 gene and an optimized secreted embryonic alkaline phosphatase (SLAP) reporter gene into HEK293 cells. The SLAP reporter gene was placed under the control of the IFN-β minimal promoter fused to five NF-κB and AP-1-binding sites. Stimulation with a TLR7 ligand activates NF-κB and AP-1 which induce the expression of SLAP. Levels of SLAP can be easily determined with HEK-Blue Detection, a cell culture medium that allows for real-time detection of SLAP. HLK-Blue Detection contains all the nutrients necessary for cell growth and a specific SLAP color substrate. The hydrolysis of the substrate by SLAP produces a purple/blue color that can be measured with a spectrophotometer.
When growing to 50-80%0 confluency, HLK-Blue hTLR7 cells were plated into 96-well plate (costar 3599) at a density of 40000 cells/well. Then compounds were added with serial dilutions over 10 points with a 0.04 nM-10 μM final concentration range in 0.1% DMSO/BLK-Blue Detection. The plates were then incubated for 16 hr at 37° C. in […] and vortex for 30s before measurement. The optical density at 620-655 nm was read on BMG PHLRAstar FSX instrument. The EC50 for each compound was determined by calculating the percentages of the maximum activation identified with Resiquimod.

[3] = target: T2, human TLR7; test: HEK293-Blue hTLR7 reporter assay (QUANTI-BLUE, SEAP readout); set-up: host or cells: HEK293 (HEK-Blue-hTLR7); details: HEK-Blue-hTLR7 cells, QUANTI-BLUE assay (A1-A76), 24 hrs
Summary of the method: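 Cells seeded at 4×10^4 per well in DMEM/10% heat-inactivated FBS, settled 5 h, then exposed to increasing compound amounts for 24 h at 37° C. Secreted SEAP in supernatant read with Quanti-blue at 620-655 nm after 10-30 min at 37° C.; EC50 from sigmoidal dose-response fit.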

Row | Compound | pEC50 [1] | pEC50 [2] | pEC50 [3]
1 | CCCC(CCO)Oc1nc(N)c2ncc(Cc3ccc(N(C)CCNC)cc3)n2n1 (stereo not shown) [Compound A94, 3-((4-amino-7-(4-(methyl(2-(methylamino)ethyl)amino)benzyl)imidazo[2,1-f][1,2,4]triazin-2-yl)oxy)hexan-1-ol] | 6.84 | 7.86 | 
2 | CCCC(CC)Oc1nc(N)c2ncc(Cc3ccc(OCCNC)nc3)n2n1 (stereo not shown) [Compound A84, 2-(hexan-3-yloxy)-7-((6-(2-(methylamino)ethoxy)pyridin-3-yl)methyl)imidazo[2,1-f][1,2,4]triazin-4-amine] | 6.72 | 8.16 | 
3 | CCCC(CCO)Oc1nc(N)c2ncc(Cc3ccc(CCNC)cc3)n2n1 (stereo not shown) [Compound A95, 3-((4-amino-7-(4-(2-(methylamino)ethyl)benzyl)imidazo[2,1-f][1,2,4]triazin-2-yl)oxy)hexan-1-ol] | 7.72 | 8.10 | 
4 | CCCC(CCO)Oc1nc(N)c2ncc(Cc3ccc(OCCNC)cc3C)n2n1 (single isomer, unassigned) [Compound A107, (R or S)-3-((4-amino-7-(2-methyl-4-(2-(methylamino)ethoxy)benzyl)imidazo[2,1-f][1,2,4]triazin-2-yl)oxy)hexan-1-ol] | 7.80 | 8.89 | 
5 | CCC[C@H](C)Oc1nc(N)c2ncc(Cc3ccc(OCCNC)cc3)n2n1 [Compound A100, (S)-7-(4-(2-(methylamino)ethoxy)benzyl)-2-(pentan-2-yloxy)imidazo[2,1-f][1,2,4]triazin-4-amine] | 6.71 | 7.82 | 
6 | CCCC(CCO)Oc1nc(N)c2ncc(Cc3ccc(OCCNC)c(F)c3)n2n1 (single isomer, unassigned) [Compound A105, (R or S)-3-((4-amino-7-(3-fluoro-4-(2-(methylamino)ethoxy)benzyl)imidazo[2,1-f][1,2,4]triazin-2-yl)oxy)hexan-1-ol] | 6.21 | 7.21 | 
7 | CCCC(CCO)Oc1nc(N)c2ncc(Cc3ccc(OC(C)CNC)nc3)n2n1 (single isomer, unassigned) [Compound A109, (3R or S)-3-((4-amino-7-((6-((1-(methylamino)propan-2-yl)oxy)pyridin-3-yl)methyl)imidazo [2,1-f][1,2,4]triazin-2-yl)oxy)hexan-1-ol] | 7.33 | 8.47 | 
8 | CCCCOc1nc(N)c2ncc(Cc3ccc(CN4CCNCC4)cc3)n2n1 [Compound A10, 2-butoxy-7-(4-(piperazin-1-ylmethyl)benzyl)imidazo[2,1-f][1,2,4]triazin-4-amine] | 6.24 |  | 5.93

Continued by rising pEC50 [1], values first:

Row | pEC50 [1] | pEC50 [2] | Compound | pEC50 [3]
9 | 6.36 | 7.98 | CCCC(CCC)Oc1nc(N)c2ncc(Cc3ccc(OCCNC)nc3)n2n1 [Compound A87, 2-(heptan-4-yloxy)-7-((6-(2-(methylamino)ethoxy)pyridin-3-yl)methyl)imidazo[2,1-f][1,2,4]triazin-4-amine] | 
10 | 6.87 | 8.43 | CCCC(CCO)Oc1nc(N)c2ncc(Cc3ccc(OCCNC)c(Cl)c3)n2n1 (stereo not shown) [Compound A102, 3-((4-amino-7-(3-chloro-4-(2-(methylamino)ethoxy)benzyl)imidazo[2,1-f][1,2,4]triazin-2-yl)oxy)hexan-1-ol] | 
11 | 7.23 | 8.41 | CCCC(CCO)Oc1nc(N)c2ncc(Cc3ccc(CCNC)cc3)n2n1 (single isomer, unassigned) [Compound A120, (S or R)-3-((4-amino-7-(4-(2-(methylamino)ethyl)benzyl)imidazo[2,1-f][1,2,4]triazin-2-yl)oxy)hexan-1-ol] | 
12 | 7.39 | 8.35 | CCCC(CCO)Oc1nc(N)c2ncc(Cc3ccc(OCCNC)cc3)n2n1 (stereo not shown) [Compound A85, 3-((4-amino-7-(4-(2-(methylamino)ethoxy)benzyl)imidazo [2,1-f][1,2,4]triazin-2-yl)oxy)hexan-1-ol] | 
13 | 7.82 | 8.68 | CCCC(CCO)Oc1nc(N)c2ncc(Cc3ccc(OCCNC)c(F)c3)n2n1 (stereo not shown) [Compound A91, 3-((4-amino-7-(3-fluoro-4-(2-(methylamino)ethoxy)benzyl)imidazo[2,1-f][1,2,4]triazin-2-yl)oxy)hexan-1-ol] | 
14 | 8.00 | 9.00 | CCCC(CCO)Oc1nc(N)c2ncc(Cc3ccc(OCCNC)cc3F)n2n1 (stereo not shown) [Compound A97, 3-((4-amino-7-(2-fluoro-4-(2-(methylamino)ethoxy)benzyl)imidazo[2,1-f][1,2,4]triazin-2-yl)oxy)hexan-1-ol] | 
